Measured values published in paper PMC6367362, “MD001, a Novel Peroxisome Proliferator-activated Receptor α/γ Agonist, Improves Glucose and Lipid Metabolism” (Scientific Reports, 2019).

Molecular target: T1, human HA-PPARγ (Homo sapiens, UniProt P37231)
T1 construct: expressed in transfected cells; host or cells: HEK293
T1 sequence (P37231 1-505): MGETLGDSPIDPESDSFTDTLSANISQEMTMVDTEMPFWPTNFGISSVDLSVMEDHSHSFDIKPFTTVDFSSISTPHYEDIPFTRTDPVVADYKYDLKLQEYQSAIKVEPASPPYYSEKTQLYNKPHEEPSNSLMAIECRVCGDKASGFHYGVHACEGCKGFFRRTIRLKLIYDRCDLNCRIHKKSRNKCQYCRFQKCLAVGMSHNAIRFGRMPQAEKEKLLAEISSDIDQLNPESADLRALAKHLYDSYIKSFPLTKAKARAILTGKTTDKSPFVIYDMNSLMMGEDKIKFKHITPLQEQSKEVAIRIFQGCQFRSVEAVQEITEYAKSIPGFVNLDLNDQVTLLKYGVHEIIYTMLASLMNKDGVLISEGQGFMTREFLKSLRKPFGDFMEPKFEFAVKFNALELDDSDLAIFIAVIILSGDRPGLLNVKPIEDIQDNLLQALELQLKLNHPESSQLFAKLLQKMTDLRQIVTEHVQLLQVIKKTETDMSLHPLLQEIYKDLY
Test: PPRE luciferase activity assay in HEK293 cells transfected with HA-PPARγ
Format: cell-based
Design: transcriptional activity of PPARγ: dose or concentration left out as unconfirmed
Settings: HEK293, PPRE-pk-Luc
Procedure: Figure 2 MD001 induces the expression of target genes through PPARα and PPARγ activation. HEK293 cells were transiently co-transfected with human HA-PPARα (A) and HA-PPARγ (B) expression vectors along with the reporter plasmid (PPRE-pk-Luc) or control reporter plasmid (pk-Luc) with Renilla vector for 24 h. Cells were treated with MD001 (10 μM), rosiglitazone (rosi) (10 μM) or WY14643 (WY) (10 μM) for 24 h. Luciferase activity was normalised to Renilla luciferase activity as described in the Methods section. **, vs. vehicle. (C) HepG2 cells were treated with MD001 (10 μM) for 24 h, and total RNA was isolated and synthesised into cDNA. Relative expression was quantitated using qRT-PCR. **, vs. vehicle. (D,E) HepG2 cells were transfected with control siRNA, PPARα siRNA (D), or PPARγ siRNA (E) for 48 h and treated with vehicle, WY14643 (10 μM), rosiglitazone (10 μM) or MD001 (10 μM) for 24 h. Subsequently, cells were harvested for total RNA isolation. Relative expression of target genes was quantitated using qRT-PCR. ^#, vs. control siRNA; ^‡, vs. control siRNA/vehicle; ^§, vs. control siRNA/WY; * and **, vs. control siRNA/MD001. Data represent the mean ± SD of three independent experiments. *P < 0.05, **P < 0.01, ^#P < 0.01, ^‡P < 0.01, and ^§P < 0.01.
For transient transfection, cells were transfected with plasmid DNA constructs by polyethylenimine (PEI, Polysciences, Inc., Warrington, PA, USA) according to the manufacturer’s instructions. Transcription activity assays of PPARα and PPARγ in HEK293 cells were performed by co-transfection of HA-PPARα, HA-PPARγ, and peroxisome proliferator-response element (PPRE) reporter plasmid (PPRE-pk-Luc) or control reporter plasmid (pk-Luc) with Renilla vector for 24 h. […] Luciferase activity was measured with the Dual-Luciferase Reporter Assay System (Promega, Madison, WI, USA) and quantified using GloMax (Promega, USA) according to the manufacturer’s protocol. […]
Luciferase activity was measured as described in the Methods section. […]

Cc1c(O)cc(O)c2c(-c3ccccc3)c(C(=O)/C=C/c3ccccc3)c(=O)oc12 [MD001]
transcription via PPARγ activation (luciferase activity) (10 μM, 24 h, vs. vehicle): significantly increased | transcriptional activity of PPARγ (24 h (Supplementary Fig. S2)): promoted simultaneous transcriptional activity
